From US20040171073A1, “Compounds for modulation of cholesterol transport” (Massachusetts Institute of Technology, priority 2002, published 2004)

Target: T1, murine SR-BI (Mus musculus, UniProt Q61009)
T1 construct: expressed in transfected cells; host or cells: ldlA-7 (LDL receptor deficient Chinese hamster ovary cells)
T1 sequence (Q61009 1-509): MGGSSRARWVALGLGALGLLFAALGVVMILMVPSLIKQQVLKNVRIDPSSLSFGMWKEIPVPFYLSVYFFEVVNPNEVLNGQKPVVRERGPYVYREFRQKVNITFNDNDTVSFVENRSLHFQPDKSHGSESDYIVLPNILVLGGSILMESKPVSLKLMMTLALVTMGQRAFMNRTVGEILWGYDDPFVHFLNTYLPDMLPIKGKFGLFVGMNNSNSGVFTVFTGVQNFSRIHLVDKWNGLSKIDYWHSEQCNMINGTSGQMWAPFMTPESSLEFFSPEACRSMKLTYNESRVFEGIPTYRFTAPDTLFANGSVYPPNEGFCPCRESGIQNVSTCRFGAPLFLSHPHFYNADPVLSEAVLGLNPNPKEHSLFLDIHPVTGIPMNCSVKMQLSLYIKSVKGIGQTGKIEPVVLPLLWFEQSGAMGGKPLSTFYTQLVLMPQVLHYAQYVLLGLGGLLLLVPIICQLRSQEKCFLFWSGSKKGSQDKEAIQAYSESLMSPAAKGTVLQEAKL
Assay: Uptake of DiI from DiI-HDL by ldlA[mSR-BI] cells (high throughput screen and concentration dependence)
Type: cell-based

[1] = DiI uptake from DiI-HDL, compounds at nominal 10 micromolar, ldlA[mSR-BI] cells

SMILES	ENDOHDL Test 1	ENDOHDL Test 2	ENDOHDL Test 1 [1]	ENDOHDL Test 2 [1]
C#CCOC(=O)CCCC(=O)Nc1ccccc1[N+](=O)[O-] [MIT 9952-191]	1.27	1.98	–	–
Clc1ccc(N2CCC/C2=N\c2c3c(nc4ccccc24)N(c2ccccc2)CC3)cc1Cl [MIT 9952-305]	–	–	0.67	0.6
Nc1nc(N)nc(-c2cccc(-c3nc(N)nc(N)n3)c2)n1 [MIT 9952-173]	1.96	1.61	–	–
Cc1ccc(C(C)C)c(OCC(=O)Nc2cc([N+](=O)[O-])ccc2C)c1 [MIT 9952-153]	0.6	0.57	–	–
COc1ccc(N/N=C2\C(=O)ON=C2c2ccc(OC)cc2)cc1 [MIT 9952-272]	0.61	0.51	–	–
COc1ccccc1NC(=O)c1ccc(OC)c(OC)c1 [MIT 9952-269]	0.74	0.66	–	–
COc1ccc(OC)c(NC(=O)c2cc([N+](=O)[O-])c(C)c([N+](=O)[O-])c2)c1 [MIT 9952-233]	0.59	0.33	–	–
COC(=O)Nc1cc([N+](=O)[O-])cc([N+](=O)[O-])c1Br [MIT 9952-79]	0.61	0.63	–	–
CC(=O)Oc1ccc2ccccc2c1C=O [MIT 9952-13]	0.55	0.67	–	–
O=C(Oc1ccc2c(=O)c(Oc3ccccc3)coc2c1)C1CCCN1C(=O)OCc1ccccc1 (stereo not shown) [MIT 9952-145]	1.28	1.34	–	–
COc1ccc([N+](=O)[O-])cc1NC(=O)c1ccccc1 [MIT 9952-238]	0.61	0.6	–	–
O=C(N/N=C\c1ccccc1O)c1ccc(O)cc1 [MIT 9952-170]	0.54	0.54	–	–
O=C(Nc1ccc(C2Nc3ccc(SC(=O)c4ccc(Cl)cc4)c(Cl)c3S2)cc1)c1ccc(Cl)cc1 (stereo not shown) [MIT 9952-35]	0.56	0.56	–	–
O=C(Nc1ccc(-c2nc3cc(NC(=O)c4ccccc4[N+](=O)[O-])ccc3o2)cc1)c1ccccc1[N+](=O)[O-] [MIT 9952-234]	0.58	0.54	–	–
CC(C)(C)c1ccc(C(=O)Nc2ccccc2C(=O)O)cc1 [MIT 9952-48]	0.68	0.49	–	–
COc1ccc([N+](=O)[O-])cc1NC(=S)NC(NC(=O)c1ccccc1Br)C(Cl)(Cl)Cl (stereo not shown) [MIT 9952-125]	0.63	0.66	–	–
O=C(O/N=C/c1ccc([N+](=O)[O-])o1)c1ccccc1 [MIT 9952-195]	1.22	1.35	–	–
COc1cc2ccccc2cc1C(=O)Nc1cccc(C)c1 [MIT 9952-237]	0.53	0.39	–	–
CCOC(=O)C1=C(c2ccc(Cl)cc2)C(=O)c2ccccc2C1=O [MIT 9952-315]	–	–	0.51	0.53
CCOC(=O)c1c(C)n(-c2ccccc2)c2ccc(NS(=O)(=O)c3ccccc3)cc12 [MIT 9952-71]	0.62	0.55	–	–

SMILES	ENDOHDL Test 1	ENDOHDL Test 2	ENDOHDL Test 1 [1]	ENDOHDL Test 2 [1]
O=C(NC(NC(=S)Nc1cccc2ccccc12)C(Cl)(Cl)Cl)c1cccc([N+](=O)[O-])c1 (stereo not shown) [MIT 9952-325]	–	–	0.56	0.49
Cc1[nH]c2ccccc2c1-c1c2ccccc2nc2ccccc12 [MIT 9952-183]	0.59	0.65	–	–
Nc1ccc(C(=O)Nc2ccc(-c3nc4ccc(NC(=O)c5ccc(N)cc5)c(Cl)c4[nH]3)cc2Cl)cc1 [MIT 9952-208]	0.57	0.55	–	–
Cc1nc(-c2ccc([N+](=O)[O-])cc2)c(C(=O)Nc2ccccc2)s1 [MIT 9952-160]	0.48	0.55	–	–
O=C(CC1=CCCCC1)Nc1cc([N+](=O)[O-])ccc1O [MIT 9952-167]	1.32	1.18	–	–
CCCCOCCC1CCC/C1=N\NC(N)=S (stereo not shown) [MIT 9952-249]	0.7	0.57	–	–
COC(=O)Cn1c2c(c3cc(C)ccc31)CCCC2NC(C)c1ccccc1 (stereo not shown) [MIT 9952-180]	0.43	0.45	–	–
Cl.NCCc1nc2ccccc2[nH]1 [MIT 9952-25]	1.21	1.69	–	–
CCn1c(/C=C/C=C2\SCCN2C)[n+](CC)c2cc(Cl)ccc21 [MIT 9952-92]	0.7	0.63	–	–
O=C(NC(NC(=S)Nc1ccc(Cl)cc1Cl)C(Cl)(Cl)Cl)c1ccco1 (stereo not shown) [MIT 9952-106]	0.6	0.53	–	–
Cc1nc(Cl)c(C(c2cc([N+](=O)[O-])ccc2Cl)c2c(Cl)nc(C)nc2Cl)c(Cl)n1 [MIT 9952-22]	1.27	1.4	–	–
Cc1cc(O)nc2cc3oc4ccccc4c3cc12 [MIT 9952-322]	–	–	0.79	0.86
O=C(Cl)c1ccccc1NS(=O)(=O)/C=C/c1ccccc1 [MIT 9952-4]	1.17	1.33	–	–
CCN1/C(=C/c2sc3ccccc3[n+]2CC)Sc2ccccc21.Cc1ccc(S(=O)(=O)[O-])cc1 [MIT 9952-267]	0.57	1.11	–	–
CCN(CC)C(=O)N1CCN(c2ccc(Nc3ccnc4cc5ccccc5cc34)cc2)CC1 [MIT 9952-141]	0.63	0.77	–	–
CN(C)c1ccc(C(Cl)(c2ccc(N(C)C)cc2)C2CN3CCC2CC3)cc1.Cl (stereo not shown) [MIT 9952-137]	1.32	1.25	–	–
Cc1ccsc1/C=N/NC(=O)c1cccc([N+](=O)[O-])c1 [MIT 9952-228]	0.46	0.63	–	–
CC(F)(F)c1cccc(NC(=O)c2sc(-c3ccccc3)nc2-c2ccc([N+](=O)[O-])cc2)c1 [MIT 9952-166]	0.56	0.67	–	–
CCOC(C(=O)OC(C)CN(C)C)(c1ccccc1)c1ccccc1.Cl (stereo not shown) [MIT 9952-128]	1.23	1.36	–	–
C=CCN(CC=C)C(=O)Nc1ccccc1 [MIT 9952-251]	0.52	0.57	–	–

SMILES	ENDOHDL Test 1	ENDOHDL Test 2	ENDOHDL Test 1 [1]	ENDOHDL Test 2 [1]
O=C(Nc1ccc(Cl)c(Cl)c1)c1ccccc1Br [MIT 9952-268]	0.59	0.65	–	–
Cc1c([N+](=O)[O-])cc(C(=O)Nc2cccc(NC(=O)c3ccccc3)c2)cc1[N+](=O)[O-] [MIT 9952-235]	0.62	0.33	–	–
O=C(Nc1cccc(NC(=O)c2ccccc2Cl)c1)c1cccc([N+](=O)[O-])c1 [MIT 9952-337]	–	–	0.6	0.57
COC(=O)/C=C1/Nc2ccccc2OC1=O [MIT 9952-151]	1.22	1.36	–	–
COc1ccc(NC(=O)c2cc([N+](=O)[O-])c(C)c([N+](=O)[O-])c2)cc1Cl [MIT 9952-226]	0.5	0.56	–	–
O=C1CC(N2CCOCC2)C(=O)N1c1ccc(Br)cc1 (stereo not shown) [MIT 9952-81]	1.32	1.17	–	–
CC1CC2(C)CC(C(=O)O2)C1C(=O)OCCOc1ccccc1 (stereo not shown) [MIT 9952-109]	1.19	1.75	–	–
NC(/N=N/c1ccccc1)=N\Nc1ccccc1 [MIT 9952-122]	0.55	0.82	–	–
O=C(Nc1ccc(-c2nc3cc(NC(=O)c4ccccc4[N+](=O)[O-])ccc3o2)cc1)c1ccccc1[N+](=O)[O-] [MIT 9952-339]	–	–	0.58	0.54
COc1ccc(/C=C2/S/C(=N/c3ccccc3)NC2=O)c(OC)c1 [MIT 9952-88]	0.73	0.77	–	–
Cc1nn(-c2ccccc2)c(Cl)c1/N=N/c1ccccc1 [MIT 9952-138]	0.54	0.63	–	–
O=C(Nc1ccc(Oc2ccc(Cl)c3cccnc23)c(Cl)c1)c1ccc([N+](=O)[O-])cc1 [MIT 9952-324]	–	–	0.55	0.56
O=C(COc1ccc(Cl)cc1Cl)Nc1cccc(C(=O)O)c1 [MIT 9952-127]	0.62	0.6	–	–
CCS(=O)(=O)C(=C(Nc1ccc(OC)cc1)Nc1ccc(OC)cc1)S(=O)(=O)CC [MIT 9952-220]	1.13	1.25	–	–
CC(=O)C1=C(C)NC(=S)NC1c1ccco1 (stereo not shown) [MIT 9952-264]	0.45	0.56	–	–
CN(N)c1nc(-c2ccccc2)cc(-c2ccccc2)n1 [MIT 9952-252]	0.58	0.39	–	–
COc1ccc(C(=O)Nc2cccc(C(F)(F)F)c2)cc1OC [MIT 9952-259]	0.59	0.55	–	–
O=C(N/N=C/c1cc2c(cc1Br)OCO2)c1cccc(Cl)c1 [MIT 9952-281]	–	–	0.59	0.34
O=C(Cl)c1ccc2c(c1)C(=O)N(c1ccc(-c3ccnc(-c4ccc(N5C(=O)c6ccc(C(=O)Cl)cc6C5=O)cc4)n3)cc1)C2=O [MIT 9952-42]	1.27	1.21	–	–
